The record followed here is US5958973A, “Polyhydroxy benzoic acid derivatives and their use as neuraminidase inhibitors” (Gilead Sciences, Inc., priority 1995, dated 1999).

The assay deals with neuraminidase. In kind it is biochemical. The conditions noted are these: in vitro enzyme inhibition; class symbols. The text has this:
Compositions of the invention are screened for inhibitory activity against neuraminidase by any of the conventional techniques for evaluating enzyme activity. […] Useful in vitro screens have been described in detail and will not be elaborated here.

Molecules are shown by their SMILES.

Broadly, the IC50 is the point on the concentration scale where inhibition reaches its midpoint. A higher IC50 goes with lower potency. The compound `CCc1cc(C(=O)O)cc(NC(=N)N)c1NC(C)=O` [Compound 213] showed an IC50 of 75 to 100 µM.
`N=C(N)Nc1cc(C(=O)O)ccc1NC(=O)C(F)(F)F` [Compound 208] had an IC50 of 20 to 75 µM.
